# Source: patent publication US5610297A, “Peptides ketoamides” (Georgia Tech Research Corp., priority 1995, dated 1997)
# Legend:
# [1] = system: Calpain-mediated breakdown of spectrin in platelets; test: Platelet membrane permeability assay; format: cell-based, rat; set-up: key: +++ = excellent activity; ++ = good activity; + = moderate activity; quantitative measurements not yet complete; conditions: class symbols; quantitative measurements not yet complete
# Procedure: Platelet membrane permeability assay. Calpain-mediated breakdown of spectrin was measured by quantitative densitometry of the calpain-specific 150/155 kDa spectrin fragment doublet [see Siman et al., Proc. Natl. Acad. Sci. USA 81, 3572-3576 (1984)]. Platelets were isolated by a modification of the method of Ferrell and Martin [J. Biol. Chem. 264, 20723-20729 (1989)]. Blood (15-20 ml) was drawn from male Sprague-Dawley rats into 1/10th volume of 100 mM EDTA-citrate, and centrifuged 10 minutes at 2000 rpm in a clinical centrifuge at room temperature. […] Platelets were washed once in 15 ml buffer 1, then resuspended to 10^7 cells/ml in buffer 2 (136 mM NaCl, 2.7 mM KCl, 0.42 mM NaH2 PO4, 12 mM NaHCO3, 2mM MgCl, 1 mg/ml BSA (Sigma), 5.6 mM glucose, 20 mM HEPES (Sigma) pH 7.4) and allowed to "rest" for a minimum of 10 minutes at room temperature before use.
# Inhibitors were added from stock solutions made fresh in DMSO. 100 μl platelets, suspended to 10^7 cells/ml in buffer 2, were incubated with 1 μl of an inhibitor solution for 5 minutes at room temperature prior to the addition of 2 mM Ca^2+ and 1 uM A23 187. After 10 minutes total exposure to inhibitor (5 minutes exposure to ionophore) at room temperature, platelets were reisolated at 14,000 rpm for 10 sec in a Beckman microfuge, dissolved in SDS-PAGE sample buffer, and heated to 90° C. for 3 minutes.
# Samples were subjected to SDS-PAGE in 4-12% gradient mini gels (Novex) and transferred to nitrocellulose (Schleicher and Schuell 0.45 um) by electroblotting. Filters were blocked for 10 minutes in 0.25% gelatin, 1% BSA, 0.25% triton X100, 0.9% NaCl, 10 mM Tris-Cl pH 7.5, incubated overnight in the same solution containing antibody to rat spectrin, washed 3×10 minutes with 10 mM Tris-Cl pH 7.5, 0.5% triton X100, incubated 4 hours in wash buffer plus alkaline phosphatase conjugated goat anti-rabbit antibody (Biorad), and washed as above. Blots were developed using the Biorad AP conjugate substrate kit. Quantitative densitometry was used to obtain values for the intact spectrin bands and the 150/155 kDa breakdown product doublet.
# Half-life in plasma = format: in vitro ADME; conditions: unit inferred, unit assumed
# cathepsin B = cathepsin B (Homo sapiens, UniProt P07858); conditions: reported by Hu and Abeles; cited from earlier work
# papain = target: T1, papain (Carica papaya, UniProt P00784); conditions: reported by Hu and Abeles; cited from earlier work
# T1 sequence (P00784 134-345): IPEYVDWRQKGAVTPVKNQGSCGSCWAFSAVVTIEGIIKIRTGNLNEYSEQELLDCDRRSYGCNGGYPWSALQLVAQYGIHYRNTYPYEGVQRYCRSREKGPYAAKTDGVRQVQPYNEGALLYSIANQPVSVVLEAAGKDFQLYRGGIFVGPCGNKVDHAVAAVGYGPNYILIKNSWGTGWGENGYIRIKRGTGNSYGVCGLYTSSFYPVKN
t 1/2 plasma (Half-life in plasma) [min],Structure (SMILES),platelet (Activity in the Platelet Assay) [1],Ki (cathepsin B) [µM],Ki (papain) [µM]
–,CC[C@H](NC(=O)[C@H](CC(C)C)NC(=O)OCc1ccccc1)C(=O)C(=O)OCc1ccccc1 [Z--Leu--Abu--COOBzl],++,–,–
–,CCOC(=O)C(=O)[C@H](Cc1ccccc1)NC(=O)[C@H](CC(C)C)NC(=O)[C@H](CC(C)C)NC(=O)OCc1ccccc1 [Z--Leu--Leu--Phe--COOEt],++,–,–
8,CCOC(=O)C(=O)C(CCSC)NC(=O)C(CC(C)C)NC(=O)OCc1ccccc1 (stereo not shown) [Z--Leu--Met--COOEt],+,–,–
1.9,CC(C)CC(NC(=O)OCc1ccccc1)C(=O)NC(Cc1ccccc1)C(=O)C(=O)OCc1ccccc1 (stereo not shown) [Z--Leu--Phe--COOBz],++,–,–
7.7,CCCCOC(=O)C(=O)[C@H](Cc1ccccc1)NC(=O)[C@H](CC(C)C)NC(=O)OCc1ccccc1 [Z--Leu--Phe--COOnBu],+++,–,–
–,CCNC(=O)C(=O)CNC(=O)[C@H](Cc1ccccc1)NC(=O)OCc1ccccc1 [Z-Phe-Gly-CO--NH-Et],–,4,1.5
